# Literature values, collected in article PMC5074076, “Novel minimal physiologically-based model for the prediction of passive tubular reabsorption and renal excretion clearance” (European Journal of Pharmaceutical Sciences, 2016).
# Settings: healthy subjects; plasma and urine data from same subjects; normalised for subject weight and body surface area where necessary; ref Table S2.1; cited from earlier work
row,SMILES,Overall weighted mean CLR
1,CC1(C)S[C@@H]2[C@H](NC(=O)C(C(=O)O)c3ccccc3)C(=O)N2[C@H]1C(=O)O (stereo partly drawn) [Carbenicillin],127.0 mL/min
2,CO[C@@]1(NC(=O)C(C(=O)O)c2ccc(O)cc2)C(=O)N2C(C(=O)O)=C(CSc3nnnn3C)CO[C@@H]21 (stereo partly drawn) [Moxalactam],69.5 mL/min
3,CN(C)CCc1c[nH]c2ccc(CS(=O)(=O)N3CCCC3)cc12 [Almotriptan],399.5 mL/min
4,CC1(C)S[C@@H]2[C@H](NC(=O)[C@H](NC(=O)N3CCNC3=O)c3ccccc3)C(=O)N2[C@H]1C(=O)O [Azlocillin],83.3 mL/min
5,Cc1cccc(C)c1NC(=O)CC12CCCN1CCC2 [Pilsicainide],234.7 mL/min
6,CC(C)NCC(O)COc1cccc2[nH]ccc12 (stereo not drawn) [Pindolol],210.9 mL/min
7,CCN(CC)CCCC(C)Nc1ccnc2cc(Cl)ccc12 (stereo not drawn) [Chloroquine],167.2 mL/min
8,CCC(CC)O[C@@H]1C=C(C(=O)O)C[C@H](N)[C@H]1NC(C)=O [Oseltamivir carboxylate],231.7 mL/min
9,CC(C)NCC(O)COc1ccc(COCCOC(C)C)cc1 (stereo not drawn) [Bisoprolol],157.0 mL/min
10,Cc1onc(-c2c(F)cccc2Cl)c1C(=O)N[C@@H]1C(=O)N2[C@@H]1SC(C)(C)[C@@H]2C(=O)O [Flucloxacillin],90.9 mL/min
11,COc1cc(Cc2cnc(N)nc2N)cc(OC)c1OC [Trimethoprim],78.2 mL/min
12,CNCCCN1c2ccccc2CCc2ccccc21 [Desipramine],28.6 mL/min
13,CO/N=C(\C(=O)N[C@@H]1C(=O)N2C(C(=O)O)=C(COC(C)=O)CS[C@H]12)c1csc(N)n1 [Cefotaxime],119.7 mL/min
14,CC1COc2c(N3CCN(C)CC3)c(F)cc3c(=O)c(C(=O)O)cn1c23 (stereo not drawn) [Ofloxacin],184.4 mL/min
15,CC(C)(O/N=C(\C(=O)N[C@@H]1C(=O)N2C(C(=O)[O-])=C(C[n+]3ccccc3)CS[C@H]12)c1csc(N)n1)C(=O)O [Ceftazidime],98.0 mL/min
16,Clc1ccc2nsnc2c1NC1=NCCN1 [Tizanidine],66.2 mL/min
17,CN1CCN(C(=O)OC2c3nccnc3C(=O)N2c2ccc(Cl)cn2)CC1 (stereo not drawn) [Zopiclone],13.0 mL/min
18,CCCCC(=O)N(Cc1ccc(-c2ccccc2-c2nnn[nH]2)cc1)[C@H](C(=O)O)C(C)C [Valsartan],11.2 mL/min
19,CC(CN1c2ccccc2Sc2ccccc21)N(C)C (stereo not drawn) [Promethazine],5.9 mL/min
20,Oc1ccc(/C=C/c2cc(O)cc(O)c2)cc1 [Resveratrol],16.6 mL/min
21,Nc1nnc(-c2cccc(Cl)c2Cl)c(N)n1 [Lamotrigine],2.5 mL/min
22,NCc1ccccc1CC(=O)N[C@@H]1C(=O)N2C(C(=O)O)=C(CSc3nnnn3CC(=O)O)CS[C@H]12 [Ceforanide],46.8 mL/min
23,COc1cc2ncnc(Nc3ccc(F)c(Cl)c3)c2cc1OCCCN1CCOCC1 [Gefitinib],8.6 mL/min
24,CCCC(=O)Nc1ccc(OCC(O)CNC(C)C)c(C(C)=O)c1 (stereo not drawn) [Acebutolol],222.8 mL/min

row,SMILES,Overall weighted mean CLR
1,CN/C(=N/CCSCc1nc[nH]c1C)NC#N [Cimetidine],417.0 mL/min
2,O=C(NC[C@H]1CN(c2ccc(N3CCOCC3=O)cc2)C(=O)O1)c1ccc(Cl)s1 [Rivaroxaban],49.8 mL/min
3,Cc1cn([C@@H]2C[C@@H](O)[C@H](CO)O2)c(=O)[nH]c1=O [Telbivudine],116.7 mL/min
4,C[C@H]1O[C@@H](O[C@H]2[C@@H](O)C[C@H](O[C@H]3[C@@H](O)C[C@H](O[C@H]4CC[C@@]5(C)[C@H](CC[C@@H]6[C@@H]5C[C@@H](O)[C@]5(C)[C@@H](C7=CC(=O)OC7)CC[C@]65O)C4)O[C@@H]3C)O[C@@H]2C)C[C@H](O)[C@@H]1O [Digoxin],151.1 mL/min
5,CCN(CC)CCNC(=O)c1ccc(NS(C)(=O)=O)cc1 [Sematilide],262.0 mL/min
6,Cc1cn([C@H]2C[C@H](N=[N+]=[N-])[C@@H](CO)O2)c(=O)[nH]c1=O [Zidovudine],258.1 mL/min
7,CC(C)(C)NCC(O)c1ccc(O)c(CO)c1 (stereo not drawn) [Salbutamol],289.9 mL/min
8,CO/N=C1\CN(c2nc3c(cc2F)c(=O)c(C(=O)O)cn3C2CC2)CC1CN (stereo not drawn) [Gemifloxacin],176.8 mL/min
9,NC12CC3CC(CC(C3)C1)C2 [Amantadine],219.2 mL/min
10,CO[C@@]1(NC(=O)CSCC#N)C(=O)N2C(C(=O)O)=C(CSc3nnnn3C)CS[C@@H]21 [Cefmetazole],110.2 mL/min
11,COc1c(N2CCNC(C)C2)c(F)cc2c(=O)c(C(=O)O)cn(C3CC3)c12 (stereo not drawn) [Gatifloxacin],168.4 mL/min
12,CCCC(CCC)C(=O)O [Valproic Acid],0.2 mL/min
13,NS(=O)(=O)c1cc(C2(O)NC(=O)c3ccccc32)ccc1Cl (stereo not drawn) [Chlorthalidone],62.3 mL/min
14,c1cnc2cc3c(cc2n1)[C@@H]1CNC[C@H]3C1 [Varenicline],118.6 mL/min
15,CC1(C)S[C@@H]2[C@H](NC(=O)[C@H](N)c3ccc(O)cc3)C(=O)N2[C@H]1C(=O)O [Amoxicillin],167.0 mL/min
16,C=CC1=C(C(=O)O)N2C(=O)[C@@H](NC(=O)/C(=N\OCC(=O)O)c3csc(N)n3)[C@H]2SC1 [Cefixime],32.5 mL/min
17,Cn1nnnc1SCC1=C(C(=O)O)N2C(=O)[C@@H](NC(=O)[C@H](O)c3ccccc3)[C@H]2SC1 [Cefamandole],162.3 mL/min
18,O=S(=O)(O)CCS [Mesna],265.8 mL/min
19,CC(=O)N[C@H]1[C@H]([C@H](O)[C@H](O)CO)OC(C(=O)O)=C[C@@H]1N=C(N)N [Zanamivir],89.1 mL/min
20,CCCc1nc(C(C)(C)O)c(C(=O)O)n1Cc1ccc(-c2ccccc2-c2nnn[nH]2)cc1 [Olmesartan],11.4 mL/min
21,CO[C@H]1/C=C/O[C@@]2(C)Oc3c(C)c(O)c4c(c3C2=O)C2=NC3(CCN(CC(C)C)CC3)NC2=C(NC(=O)/C(C)=C\C=C\[C@H](C)[C@H](O)[C@@H](C)[C@@H](O)[C@@H](C)[C@H](OC(C)=O)[C@@H]1C)C4=O [Rifabutin],58.4 mL/min
22,CO/N=C(\C(=O)N[C@@H]1C(=O)N2C(C(=O)[O-])=C(C[n+]3cccc4c3CCC4)CS[C@H]12)c1csc(N)n1 [Cefpirome],97.5 mL/min
23,CC1(C)S[C@@H]2[C@H](NC(=O)Cc3ccccc3)C(=O)N2[C@H]1C(=O)O [Benzylpenicillin],316.8 mL/min
24,CCn1cc(C(=O)O)c(=O)c2cc(F)c(N3CCNCC3)nc21 [Enoxacin],256.7 mL/min

row,SMILES,Overall weighted mean CLR
1,CCn1cc(C(=O)O)c(=O)c2cc(F)c(N3CCNC(C)C3)c(F)c21 (stereo not drawn) [Lomefloxacin],155.8 mL/min
2,Nc1nc2c(ncn2CCC(CO)CO)c(=O)[nH]1 [Penciclovir],439.6 mL/min
3,CC[C@H](C)C(=O)O[C@H]1C[C@H](O)C=C2C=C[C@H](C)[C@H](CC[C@@H](O)C[C@@H](O)CC(=O)O)[C@H]21 [Pravastatin],414.6 mL/min
4,CSc1ccc(C(=O)c2[nH]c(=O)[nH]c2C)cc1 [Enoximone],3.4 mL/min
5,NC(=O)c1cnccn1 [Pyrazinamide],2.0 mL/min
6,C[C@@H](O)[C@H]1C(=O)N2C(C(=O)O)=C(S[C@H]3C[C@@H](C(=O)N4CC[C@H](NC(=O)CNC(=N)N)C4)N(C)C3)[C@H](C)[C@H]12 [Tomopenem],77.7 mL/min
7,Cc1nnc(C(=O)NC(C)(C)c2nc(C(=O)NCc3ccc(F)cc3)c(O)c(=O)n2C)o1 [Raltegravir],55.0 mL/min
8,NC1CCN(c2c(F)cc3c(=O)c(C(=O)O)cn(C4CC4)c3c2Cl)C1 (stereo not drawn) [Clinafloxacin],191.0 mL/min
9,CNC(C)Cc1ccc2c(c1)OCO2 (stereo not drawn) [MDMA],215.0 mL/min
10,CCN(CC)CCNC(=O)c1ccc(NC(C)=O)cc1 [Acecainide],226.7 mL/min
11,CCCn1c(=O)[nH]c(=O)c2[nH]cnc21 [Enprofylline],272.6 mL/min
12,N[C@@H](CC(=O)N1CCn2c(nnc2C(F)(F)F)C1)Cc1cc(F)c(F)cc1F [Sitagliptin],371.2 mL/min
13,CN(C)CCn1nnnc1SCC1=C(C(=O)O)N2C(=O)[C@@H](NC(=O)Cc3csc(N)n3)[C@H]2SC1 [Cefotiam],193.7 mL/min
14,C[C@H]1COc2c(N3CCN(C)CC3)c(F)cc3c(=O)c(C(=O)O)cn1c23 [Levofloxacin],116.9 mL/min
15,CC1(C)S[C@@H]2[C@H](NC(=O)[C@H](NC(=O)c3cnc4cccnc4c3O)c3ccccc3)C(=O)N2[C@H]1C(=O)O [Apalcillin],29.0 mL/min
16,CN1CCN(c2c(F)cc3c(=O)c(C(=O)O)cn(CCF)c3c2F)CC1 [Fleroxacin],67.5 mL/min
17,CC12CC3CC(C)(C1)CC(N)(C3)C2 [Memantine],117.1 mL/min
18,CN[C@@H]1CCc2[nH]c3ccc(C(N)=O)cc3c2C1 [Frovatriptan],73.5 mL/min
19,CCS(=O)(=O)CCn1c([N+](=O)[O-])cnc1C [Tinidazole],11.3 mL/min
20,CO[C@@]1(NC(=O)C2SC(=C(C(N)=O)C(=O)O)S2)C(=O)N2C(C(=O)O)=C(CSc3nnnn3C)CS[C@@H]21 (stereo partly drawn) [Cefotetan],23.9 mL/min
21,O=C(O)C1=C(CSc2nnnn2CS(=O)(=O)O)CS[C@@H]2[C@H](NC(=O)[C@H](O)c3ccccc3)C(=O)N12 [Cefonicid],18.3 mL/min
22,O=C1Nc2ccc(Cl)cc2C(c2ccccc2Cl)=NC1O (stereo not drawn) [Lorazepam],0.3 mL/min
23,Nc1ncnc2c1ncn2CCOCP(=O)(O)O [Adefovir],200.4 mL/min
24,CO[C@@]1(NC(=O)C(C(=O)O)c2ccsc2)C(=O)N2[C@@H](C(=O)O)C(C)(C)S[C@@H]21 (stereo partly drawn) [Temocillin],39.8 mL/min
